Here are results for 1 compound from patent US20200306204A1, “TRANSDERMAL DELIVERY SYSTEM COMPRISING BUPRENORPHINE” (LTS Lohmann Therapie-Systeme AG, priority 2011, published 2020).

A short description of the series: Solubility.

As to `CO[C@]12CC[C@@]3(C[C@@H]1[C@](C)(O)C(C)(C)C)[C@H]1Cc4ccc(O)c5c4[C@@]3(CCN1CC1CC1)[C@H]2O5` [Buprenorphine, (5R,6R,7R,9R,13S,14S)-17-Cyclopropylmethyl-7-[(S)-3,3-dimethyl-2-hydroxybutan-2-yl]-6-methoxy-4,5-epoxy-6,14-ethanomorphinan-3-ol], the Solubility in polysiloxanes result is listed as “extremely low solubility”.
